The target in one test is T1, Human plasma kallikrein (Homo sapiens, UniProt P03952).
T1 construct: yields a heavy chain (371 amino acids) and a light chain (248 amino acids); purchased Enzyme Research Laboratories
The test is described as follows: Plasma Kallikrein Assay. Conditions: purified Human plasma kallikrein 0.5 nM, substrate Acetyl-K-P-R-AFC; read-out: PKal IC50. The test is classed as biochemical. Summed up: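 Purified human plasma kallikrein (0.5 nM) hydrolysing fluorogenic Acetyl-K-P-R-AFC ([…]) in 50 mM HEPES pH 7.4, 150 mM NaCl, 5 mM CaCl2, 0.1% PEG 8000, at rt or 37 °C after enzyme–inhibitor equilibration. IC50 from four-parameter logistic fit; Ki via Cheng–Prusoff.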

The next test has as its target T2, human factor XIa (Homo sapiens, UniProt P03951).
T2 construct: with human (0.04 nM) factor XIa
The test can be described thus: Factor XIa Assay. Type of test: biochemical. Conditions: human factor XIa 0.04 nM, substrate GPR-AFC, 25° C. The method, then: The effectiveness of a compound of the present invention as an inhibitor of Coagulation factor XIa can be determined using a relevant purified serine protease, and an appropriate synthetic substrate. The rate of hydrolysis of the chromogenic or fluorogenic substrate by the relevant serine protease was measured both in the absence and presence of compounds of the present invention. Assays were conducted at rt or at 37° C. […] A decrease in the rate of fluorescence change in the presence of inhibitor is indicative of enzyme inhibition. Such methods are known to one skilled in the art. The results of this assay are expressed as the half-maximal inhibitory concentrations (IC50), or the inhibitory constant, Ki.
Compounds were pre-incubated for 30 min at 25° C. with human (0.04 nM) factor XIa in 50 mM HEPES buffer with 150 mM sodium chloride, 5 mM calcium chloride, 0.1% PEG 8000, pH 7.4. factor XIa enzymatic activity was determined by addition of the substrate glycine-proline-arginine-7-amido-4-trifluoromethylcoumarin (GPR-AFC) and measurement of the fluorescence at 400/505 nm after a 60 min incubation at 25° C. The % inhibition for each data point was calculated from the data and analyzed using the log (inhibitor) vs. response four parameters equation to determine the half-maximal inhibitory concentrations (IC50). The IC50 were converted to equilibrium inhibitory constants (Ki) using the Cheng-Prusoff equation.

The structures appear in SMILES notation.

T2 sequence (P03951 388-625 limits assumed): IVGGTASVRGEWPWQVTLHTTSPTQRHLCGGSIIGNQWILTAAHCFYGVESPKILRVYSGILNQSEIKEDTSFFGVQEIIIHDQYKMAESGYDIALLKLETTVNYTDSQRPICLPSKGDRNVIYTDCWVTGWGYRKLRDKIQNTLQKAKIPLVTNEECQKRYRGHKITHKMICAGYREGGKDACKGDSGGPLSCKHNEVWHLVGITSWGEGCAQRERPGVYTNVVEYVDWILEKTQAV
T2 sequence (P03951 19-387 partner limits assumed): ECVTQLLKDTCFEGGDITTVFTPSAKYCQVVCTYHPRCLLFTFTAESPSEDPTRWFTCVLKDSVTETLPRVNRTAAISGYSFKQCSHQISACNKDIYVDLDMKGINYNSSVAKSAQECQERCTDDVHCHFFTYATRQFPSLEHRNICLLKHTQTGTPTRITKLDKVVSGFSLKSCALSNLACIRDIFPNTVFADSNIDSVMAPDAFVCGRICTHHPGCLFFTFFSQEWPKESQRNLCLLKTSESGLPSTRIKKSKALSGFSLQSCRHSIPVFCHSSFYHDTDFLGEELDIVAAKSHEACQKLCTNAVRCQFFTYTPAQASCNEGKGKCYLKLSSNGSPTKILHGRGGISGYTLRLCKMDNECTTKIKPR
T1 sequence (P03952 391-638 limits assumed): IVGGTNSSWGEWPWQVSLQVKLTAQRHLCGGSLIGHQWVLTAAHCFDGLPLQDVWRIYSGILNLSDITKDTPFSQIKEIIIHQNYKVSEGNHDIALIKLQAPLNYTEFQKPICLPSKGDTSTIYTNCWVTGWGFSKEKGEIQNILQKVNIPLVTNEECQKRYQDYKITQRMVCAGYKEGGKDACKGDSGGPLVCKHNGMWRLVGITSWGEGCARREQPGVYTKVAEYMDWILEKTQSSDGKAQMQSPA
T1 sequence (P03952 20-390 partner limits assumed): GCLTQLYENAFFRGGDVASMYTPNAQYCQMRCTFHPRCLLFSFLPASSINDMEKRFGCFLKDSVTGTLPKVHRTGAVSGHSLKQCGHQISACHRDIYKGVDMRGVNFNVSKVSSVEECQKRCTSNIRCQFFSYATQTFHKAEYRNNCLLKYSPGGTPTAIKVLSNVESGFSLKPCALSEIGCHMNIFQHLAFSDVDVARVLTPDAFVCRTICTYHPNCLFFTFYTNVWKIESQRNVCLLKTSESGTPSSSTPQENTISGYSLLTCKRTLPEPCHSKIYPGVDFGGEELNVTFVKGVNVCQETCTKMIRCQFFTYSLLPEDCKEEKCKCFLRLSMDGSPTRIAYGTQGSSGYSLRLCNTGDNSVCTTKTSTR

With `Cc1cc(Cc2nnc(C(=O)N3CCC[C@@]4(C3)OC(=O)Nc3ccc(Cl)c(F)c34)[nH]2)cc2[nH]ncc12` [Example 124, (R)-6-Chloro-5-fluoro-1′-(5-((4-methyl-1H-indazol-6-yl)methyl)-4H-1,2,4-triazole-3-carbonyl)spiro[benzo[d][1,3]oxazine-4,3′-piperidin]-2(1H)-one], the IC50 on Human plasma kallikrein was 13.5 nM; against human factor XIa, 7760 nM.
Consider `O=C1Nc2ccc(Cl)c(F)c2[C@@]2(CCCN(C(=O)c3nnc(C(c4ccccc4)C4CC4)[nH]3)C2)O1` (single isomer, unassigned) [Example 107], for which the 50% inhibitory concentration (IC50) stood at 11.2 nM on Human plasma kallikrein and 1910 nM on human factor XIa.
For `CO[C@H](C)[C@H](c1ccccc1)n1cc(C(=O)N2CCC[C@@]3(C2)OC(=O)Nc2ccc(Cl)c(F)c23)cn1` [Example 15, (R)-6-Chloro-5-fluoro-1′-(1-((1S,2R)-2-methoxy-1-phenylpropyl)-1H-pyrazole-4-carbonyl)spiro[benzo[d][1,3]oxazine-4,3′-piperidin]-2(1H)-one] the same measures were 38.1 nM and 2710 nM.
Consider `CCC(c1ccc2cnccc2c1)n1cc(C(=O)N2CCC[C@@]3(C2)OC(=O)Nc2ccc(Cl)c(F)c23)cn1` (single isomer, unassigned) [Example 35], for which the IC50 on Human plasma kallikrein is 2.6 nM; at human factor XIa, 1020 nM.
For `CO[C@@H](C)[C@@H](c1ccccc1)n1cc(C(=O)N2CCC[C@@]3(C2)OC(=O)Nc2ccc(Cl)c(F)c23)cn1` [Example 11, (R)-6-Chloro-5-fluoro-1′-(1-((1R,2S)-2-methoxy-1-phenylpropyl)-1H-pyrazole-4-carbonyl)spiro[benzo[d][1,3]oxazine-4,3′-piepridine]-2(1H)-one], the IC50 came to 20 nM at Human plasma kallikrein and 4330 nM at human factor XIa.
With `CCC(c1ccc(F)cc1)n1cc(C(=O)N2CCC[C@@]3(C2)OC(=O)Nc2ccc(Cl)c(F)c23)cn1` (single isomer, unassigned) [Example 26], the IC50 on Human plasma kallikrein was found to be 6.9 nM; at human factor XIa, 7640 nM.
For the molecule `O=C1Nc2ccc(Cl)c(F)c2[C@@]2(CC(C3CC3)CN(C(=O)c3cnn(Cc4ccccc4)c3)C2)O1` (stereo partly drawn) [Example 22, (4R)-1′-(1-Benzyl-1H-pyrazole-4-carbonyl)-6-chloro-5′-cyclopropyl-5-fluorospiro[benzo[d][1,3]oxazine-4,3′-piperidin]-2(1H)-one], the IC50 amounted to 7.9 nM at Human plasma kallikrein and 1370 nM at human factor XIa.
Turning to `O=C1Nc2ccc(Cl)c(F)c2[C@@]2(CCCN(C(=O)c3cnn(Cc4ccnc(C(F)(F)F)c4)c3)C2)O1` [Example 7, (R)-6-Chloro-5-fluoro-1′-(1-((2-(trifluoromethyl)pyridin-4-yl)methyl)-1H-pyrazole-4-carbonyl)spiro[benzo[d][1,3]oxazine-4,3′-piperidin]-2(1H)-one], the results for the IC50 at Human plasma kallikrein and against human factor XIa were 37.5 nM and 881 nM, respectively.
Taken in the same sequence, the figures for `CCC(c1c(C)noc1C)n1cc(C(=O)N2CCC[C@@]3(C2)OC(=O)Nc2ccc(Cl)c(F)c23)cn1` (single isomer, unassigned) [Example 43] were 27.1 nM and 4670 nM.
Taken in the same sequence, the figures for `CC[C@H](c1ccc(F)cc1)c1nnc(C(=O)N2CCC[C@@]3(C2)OC(=O)Nc2ccc(Cl)c(F)c23)[nH]1` (single isomer, unassigned) [Example 85] were 16.7 nM and 3110 nM.
Take `O=C1Nc2ccc(Cl)c(F)c2[C@@]2(CCCN(C(=O)c3nnc(C(CC(F)(F)F)c4cccc(Cl)c4)[nH]3)C2)O1` (single isomer, unassigned) [Example 101]: the IC50 was determined as 10.4 nM on Human plasma kallikrein and 4010 nM against human factor XIa.
Regarding `COC1(CC(c2ccccc2)c2c[nH]c(C(=O)N3CCC[C@@]4(C3)OC(=O)Nc3ccc(Cl)c(F)c34)n2)CC1` (single isomer, unassigned) [Example 75, (R)-6-Chloro-5-fluoro-1′-(4-((R or S)-2-(1-methoxycyclopropyl)-1-phenylethyl)-1H-imidazole-2-carbonyl)spiro[benzo[d][1,3]oxazine-4,3′-piperidin]-2(1H)-one], the IC50 on Human plasma kallikrein came out at 5.7 nM; at human factor XIa, 322 nM.
`O=C1Nc2ccc(Cl)c(F)c2[C@@]2(CCCN(C(=O)c3cnc(C(c4ccc(F)cc4)C(F)(F)F)[nH]3)C2)O1` (single isomer, unassigned) [Example 82]: the figures for the IC50 at Human plasma kallikrein and on human factor XIa were 42.5 nM and 7390 nM, respectively.
With `O=C1Nc2ccc(Cl)c(F)c2[C@@]2(CCCN(C(=O)c3cnn(C(CC4CC4)c4ccccc4)c3)C2)O1` (single isomer, unassigned) [Example 29], the IC50 on Human plasma kallikrein came to 6.9 nM; on human factor XIa, 1570 nM.
For `CCC(c1cc(C)c2nc[nH]c2c1)n1cc(C(=O)N2CCC[C@@]3(C2)OC(=O)Nc2ccc(Cl)c(F)c23)cn1` (single isomer, unassigned) [Example 46, (4R)-6-Chloro-5-fluoro-1′-(1-((S or R)-1-(4-methyl-1H-benzo[d]imidazol-6-yl)propyl)-1H-pyrazole-4-carbonyl)spiro[benzo[d][1,3]oxazine-4,3′-piperidin]-2(1H)-one] the same measures were 1.2 nM and 846 nM.
For `CCC(c1ccnc(C(F)(F)F)c1)n1cc(C(=O)N2CCC[C@@]3(C2)OC(=O)Nc2ccc(Cl)c(F)c23)cn1` (single isomer, unassigned) [Example 38], the IC50 stood at 1.8 nM at Human plasma kallikrein and 2060 nM at human factor XIa.
Take `CC[C@@H](c1ccc(F)cc1)c1ncc(C(=O)N2CCC[C@@]3(C2)OC(=O)Nc2ccc(Cl)c(F)c23)[nH]1` (single isomer, unassigned) [Example 79]: the IC50 on Human plasma kallikrein stood at 1.7 nM; against human factor XIa, 194 nM.
For `CCC(c1ccc2[nH]ncc2c1)n1cc(C(=O)N2CCC[C@@]3(C2)OC(=O)Nc2ccc(Cl)c(F)c23)cn1` (single isomer, unassigned) [Example 39], the IC50 at Human plasma kallikrein stood at 4 nM; against human factor XIa it was 1350 nM.
Taken in the same sequence, the figures for `O=C1Nc2ccc(Cl)c(F)c2[C@@]2(CCCN(C(=O)c3cnn([C@](CO)(CC4CC4)c4ccc(F)cc4)c3)C2)O1` [Example 34, (R)-6-Chloro-1′-(1-((R)-1-cyclopropyl-2-(4-fluorophenyl)-3-hydroxypropan-2-yl)-1H-pyrazole-4-carbonyl)-5-fluorospiro[benzo[d][1,3]oxazine-4,3′-piperidin]-2(1H)-one] were 13.1 nM and 270 nM.
Consider `O=C1Nc2ccc(Cl)c(F)c2[C@@]2(CCCN(C(=O)c3cnc(Cc4ccc(F)cc4)[nH]3)C2)O1` [Example 76, (R)-6-Chloro-5-fluoro-1′-(2-(4-fluorobenzyl)-1H-imidazole-5-carbonyl)spiro[benzo[d][1,3]oxazine-4,3′-piperidin]-2(1H)-one], for which the IC50 came out at 16.1 nM at Human plasma kallikrein and 4580 nM against human factor XIa.
On to `CCC(c1ccc2c(c1)COC2)c1nnc(C(=O)N2CCC[C@@]3(C2)OC(=O)Nc2ccc(Cl)c(F)c23)[nH]1` (single isomer, unassigned) [Example 111], for which the IC50 was found to be 3.8 nM on Human plasma kallikrein and 2820 nM on human factor XIa.
Taken in the same sequence, the figures for `CC[C@@H](c1cc(C)c2nc[nH]c2c1)c1n[nH]c(C(=O)N2CCC[C@@]3(C2)OC(=O)Nc2ccc(Cl)c(F)c23)n1` [Example 109, (R)-6-Chloro-5-fluoro-1′-(3-((S)-1-(4-methyl-1H-benzo[d]imidazol-6-yl)propyl)-TH-1,2,4-triazole-5-carbonyl)spiro[benzo[d][1,3]oxazine-4,3′-piperidin]-2(1H)-one] were 1.3 nM and 646 nM.

The values above are taken from patent US20250099478A1, “PLASMA KALLIKREIN INHIBITORS” (Merck Sharp & Dohme LLC, priority 2022, published 2025).
